Patent US4822790A, “1-Sulfo-2-oxoazetidine derivatives and their production” (Takeda Chemical Industries, Ltd., priority 1980, dated 1989)
Converted amounts (≈) assume the structure as drawn. Structures can show the parent of a compound that is named as a salt.

Assays:
Type in all cases: cell-based
[1] = test system: Streptococcus mitis America; experiment: Antibacterial test (MIC), Streptococcus mitis America; conditions: for Minimum inhibitory concentration (MIC): medium B-TSA
Source text: (§1) The following is media and compounds employed in the antibacterial test.
(§2) TSA=Trypticase soy agar [Baltimore Biologicals (U.S.A.)]
(§3) B-TSA=Blood trypticase soy agar

[2] = test system: Streptococcus pyogenes E-14; experiment: Antibacterial test (MIC), Streptococcus pyogenes E-14; conditions: for Minimum inhibitory concentration (MIC): medium B-TSA
Source text: as §1, §2, §3

[3] = test system: Klebsiella pneumoniae DT; experiment: Antibacterial test (MIC), Klebsiella pneumoniae DT; conditions: medium TSA
Source text: as §1, §2, §3

[4] = test system: Staphylococcus aureus 308A-1; experiment: Antibacterial test (MIC), Staphylococcus aureus 308A-1; conditions: for Minimum inhibitory concentration (MIC): medium TSA; for MIC: Staphylococcus aureus, 308A1, read-out: Minimum inhibitory concentration (MIC)
Source text: as §1, §2, §3

[5] = test system: Acinetobacter calcoaceticus IFO 13006; experiment: Antibacterial test (MIC), Acinetobacter calcoaceticus IFO 13006; conditions: medium TSA
Source text: as §1, §2, §3

[6] = test system: Escherichia coli NIHJ JC-2; experiment: Antibacterial test (MIC), Escherichia coli NIHJ JC-2; conditions: medium TSA
Source text: as §1, §2, §3

[7] = test system: Citrobacter freundii IFO 12681; experiment: Antibacterial test (MIC), Citrobacter freundii IFO 12681; conditions: medium TSA
Source text: as §1, §2, §3

[8] = test system: Staphylococcus aureus FDA209P; experiment: Antibacterial test (MIC), Staphylococcus aureus FDA209P
Source text: as §1, §2, §3

[9] = test system: Escherichia coli 0-111; experiment: Antibacterial test (MIC), Escherichia coli 0-111; conditions: medium TSA; for MIC: Escherichia coli, 0111, read-out: Minimum inhibitory concentration (MIC)
Source text: as §1, §2, §3

[10] = test system: Streptococcus pyogenes S-8; experiment: Antibacterial test (MIC), Streptococcus pyogenes S-8; conditions: medium B-TSA
Source text: as §1, §2, §3

[11] = test system: Candida albicans TA; experiment: Antibacterial test (MIC), Candida albicans TA; conditions: medium TSA
Source text: as §1, §2, §3

[12] = test system: Pseudomonas aeruginosa IFO 3455; experiment: Antibacterial test (MIC), Pseudomonas aeruginosa IFO 3455; conditions: for Minimum inhibitory concentration (MIC): medium TSA
Source text: as §1, §2, §3

[13] = test system: Escherichia coli T-7; experiment: Antibacterial test (MIC), Escherichia coli T-7; conditions: medium TSA; for MIC: Escherichia coli, T7, read-out: Minimum inhibitory concentration (MIC)
Source text: as §1, §2, §3

[14] = test system: Corynebacterium diphtheriae Toronto; experiment: Antibacterial test (MIC), Corynebacterium diphtheriae Toronto; conditions: medium B-TSA
Source text: as §1, §2, §3

[15] = test system: Streptococcus faecium IFO 3128; experiment: Antibacterial test (MIC), Streptococcus faecium IFO 3128; conditions: medium B-TSA
Source text: as §1, §2, §3

[16] = test system: Pseudomonas aeruginosa U 31; experiment: Antibacterial test (MIC), Pseudomonas aeruginosa U 31; conditions: medium TSA
Source text: as §1, §2, §3

[17] = test system: Bordetella bronchiseptica Sagami; experiment: Antibacterial test (MIC), Bordetella bronchiseptica Sagami; conditions: medium B-TSA
Source text: as §1, §2, §3

[18] = test system: Enterobacter cloacae IFO 12937; experiment: Antibacterial test (MIC), Enterobacter cloacae IFO 12937; conditions: medium TSA
Source text: as §1, §2, §3

[19] = test system: Staphylococcus aureus 1840; experiment: Antibacterial test (MIC), Staphylococcus aureus 1840; conditions: medium TSA
Source text: as §1, §2, §3

[20] = test system: Serratia marcescens IFO 12648; experiment: Antibacterial test (MIC), Serratia marcescens IFO 12648; conditions: medium TSA
Source text: as §1, §2, §3

[21] = test system: Proteus morganii IFO 3168; experiment: Antibacterial test (MIC), Proteus morganii IFO 3168; conditions: medium TSA
Source text: as §1, §2, §3

[22] = test system: Streptococcus pneumoniae Type I; experiment: Antibacterial test (MIC), Streptococcus pneumoniae Type I; conditions: for Minimum inhibitory concentration (MIC): medium B-TSA
Source text: as §1, §2, §3

[23] = test system: Proteus vulgaris IFO 3988; experiment: Antibacterial test (MIC), Proteus vulgaris IFO 3988; conditions: medium TSA
Source text: as §1, §2, §3

[24] = test system: Proteus mirabilis IFO 3849; experiment: Antibacterial test (MIC), Proteus mirabilis IFO 3849; conditions: medium TSA
Source text: as §1, §2, §3

[25] = test system: Enterobacter cloacae IFO 12937; experiment: MIC by agar dilution method (Experiment C), Enterobacter cloacae IFO 12937; conditions: IFO12937, Trypticase Soy agar, about 10^8 CFU/ml, 37° C. overnight, read-out: Minimal inhibitory concentration (MIC)
Procedure: (§4) The tables given below set forth the minimal inhibitory concentrations (MIC) of some typical compounds [I]C as obtained in the working examples. The minimal inhibitory concentrations of the tested compounds are determined by the agar dilution method. Namely, 1.0 ml. of aqueous solution of the tested compounds diluted by serial dilutions is poured into test petri dish. Subsequently 9.0 ml. of Trypticase Soy agar is poured into the dish and mixed. On the mixed agar plate, one loopful of bacterial suspension (about 10^8 CFU/ml.) of test microorganism is streaked. After the incubation at 37° C. overnight, the lowest concentration of the tested compounds which cause apparently complete inhibition of growth of the test microorganism is taken to be minimal inhibitory concentration. (1) Enterobacter cloacae IFO 12937

[26] = test system: Klebsiella pneumoniae TN 1711; experiment: MIC by agar dilution method (Experiment C), Klebsiella pneumoniae TN 1711; conditions: TN1711, Trypticase Soy agar, about 10^8 CFU/ml, 37° C. overnight, read-out: Minimal inhibitory concentration (MIC)
Procedure: as §4, with “(2) Klebsiella pneumoniae TN 1711” for “(1) Enterobacter cloacae IFO 12937”

| Compound | Minimum inhibitory concentration (MIC) [1] [µg/mL] | Minimum inhibitory concentration (MIC) [2] [µg/mL] | Minimum inhibitory concentration (MIC) [3] [µg/mL] | Minimum inhibitory concentration (MIC) [4] [µg/mL] | Minimum inhibitory concentration (MIC) [5] [µg/mL] | Minimum inhibitory concentration (MIC) [6] [µg/mL] | Minimum inhibitory concentration (MIC) [7] [µg/mL] | Minimum inhibitory concentration (MIC) ([8]; medium B-TSA) [µg/mL] | Minimum inhibitory concentration (MIC) ([8]; medium TSA) [µg/mL] | Minimum inhibitory concentration (MIC) [10] [µg/mL] | Minimum inhibitory concentration (MIC) [11] [µg/mL] | Minimum inhibitory concentration (MIC) [12] [µg/mL] | Minimum inhibitory concentration (MIC) [13] [µg/mL] | Minimum inhibitory concentration (MIC) [14] [µg/mL] | Minimum inhibitory concentration (MIC) [15] [µg/mL] | Minimum inhibitory concentration (MIC) [16] [µg/mL] | Minimum inhibitory concentration (MIC) [17] [µg/mL] | Minimum inhibitory concentration (MIC) [18] [µg/mL] | Minimum inhibitory concentration (MIC) [19] [µg/mL] | Minimum inhibitory concentration (MIC) [20] [µg/mL] | other results |
| --- | --- | --- | --- | --- | --- | --- | --- | --- | --- | --- | --- | --- | --- | --- | --- | --- | --- | --- | --- | --- | --- |
| CCN1CCN(C(=O)N[C@@H](C(=O)NC2CN(S(=O)(=O)[O-])C2=O)c2cccs2)C(=O)C1=O.[Na+] (stereo partly drawn) [Compound F, Sodium 3-[D-2-(4-ethyl-2,3-dioxo-1-piperazinocarboxamido)-2-thienylacetamido]-2-oxoazetidine-1-sulfonate] | 25 | 3.13 | 0.2 | 6.25 | 25 | 0.78 | 1.56 | 6.25 | 6.25 | 3.13 | > 100 | 6.25 | > 100 | 0.78 | > 100 | > 100 | > 100 | 50 | 25 | 1.56 | Minimum inhibitory concentration (MIC) [9]: 0.2 µg/mL; Minimum inhibitory concentration (MIC) [21]: 12.5 µg/mL; Minimum inhibitory concentration (MIC) [22]: 6.25 µg/mL; Minimum inhibitory concentration (MIC) [23]: < 0.1 µg/mL; Minimum inhibitory concentration (MIC) [24]: 0.78 µg/mL |
| CCCCCCCCN1CCN(C(=O)NC(C(=O)NC2CN(S(=O)(=O)O)C2=O)c2csc(N)n2)C(=O)C1=O (stereo not drawn) [Compound H, Sodium 3-[2-(4-n-octyl-2,3-dioxo-1-piperazinocarboxamido)-2-(2-amino-4-thiazolyl)-acetamido]2-oxoazetidine-1-sulfonate] | – | – | – | – | – | – | – | – | – | – | – | – | – | – | – | – | – | – | – | – | MIC ([2]; Streptococcus pyogenes, E14, read-out: Minimum inhibitory concentration (MIC)): 3.13 µg/mL; MIC [4]: 3.13 µg/mL; MIC [9]: 3.13 µg/mL; MIC [13]: > 100 µg/mL; MIC ([22]; Streptococcus pneumoniae, read-out: Minimum inhibitory concentration (MIC)): 3.13 µg/mL |
| O=C(NC1CN(S(=O)(=O)[O-])C1=O)C(NC(=O)N1CCN(N=Cc2ccco2)C1=O)c1cccs1.[Na+] (stereo not drawn) [Compound L, Sodium 3-[2-[(2-oxo-3-furfurylideneaminoimidazolidin-1-yl)-carboxamido]-2-thienylacetamido]-2-oxoazetidine-1-sulfonate] | 6.25 | 0.78 | < 0.1 | 3.13 | 50 | 1.56 | 1.56 | 6.25 | 6.25 | 0.78 | > 100 | 3.13 | > 100 | 1.56 | > 100 | > 100 | > 100 | 25 | 25 | 1.56 | Minimum inhibitory concentration (MIC) [9]: < 0.1 µg/mL; Minimum inhibitory concentration (MIC) [21]: 12.5 µg/mL; Minimum inhibitory concentration (MIC) [22]: 1.56 µg/mL; Minimum inhibitory concentration (MIC) [23]: 0.2 µg/mL; Minimum inhibitory concentration (MIC) [24]: 0.78 µg/mL |
| O=C(NC1CN(S(=O)(=O)O)C1=O)[C@H](NC(=O)N1CCN(N=Cc2ccco2)C1=O)c1ccccc1 (stereo partly drawn) [Compound I, Sodium 3-[D-2-[(2-oxo-3-furfurylideneaminoimidazolidin-1-yl)-carboxamido]-2-phenylacetamido]-2-oxoazetidine-1-sulfonate] | – | – | – | – | – | – | – | – | – | – | – | – | – | – | – | – | – | – | – | – | MIC ([1]; Streptococcus mitis, read-out: Minimum inhibitory concentration (MIC)): 3.13 µg/mL; MIC [4]: 3.13 µg/mL; MIC [9]: 3.13 µg/mL; MIC ([12]; Pseudomonas aeruginosa, IFO3455, read-out: Minimum inhibitory concentration (MIC)): 3.13 µg/mL; MIC [13]: > 100 µg/mL |
| COC(=O)C[C@@H]1[C@@H](NC(=O)/C(=N\OC(C)(C)C(=O)O)c2csc(N)n2)C(=O)N1S(=O)(=O)O (relative stereo) [Example No. 158C, trans-3-[2-(2-amino-4-thiazolyl)-2-(1-methyl-1-carboxyethyloxyimino)acetamido]-4-methoxycarbonylmethyl-2-oxo-azetidine-1-sulfonic acid (syn-isomer)] | – | – | – | – | – | – | – | – | – | – | – | – | – | – | – | – | – | – | – | – | MIC [25]: 3.13 µg/mL (≈ 6.34 µM); MIC [26]: 6.25 µg/mL (≈ 12.7 µM) |
| CC(C)(O/N=C(\C(=O)N[C@H]1C(=O)N(S(=O)(=O)O)[C@H]1C(N)=O)c1csc(N)n1)C(=O)O (relative stereo) [Example No. 133C, cis-3-[2-(2-amino-4-thiazolyl)-2-(1-methyl-1-carboxyethyloxyimino)acetamido]-4-carbamoyl-2-oxoazetidine-1-sulfonic acid (syn-isomer)] | – | – | – | – | – | – | – | – | – | – | – | – | – | – | – | – | – | – | – | – | MIC [25]: 1.56 µg/mL (≈ 3.36 µM); MIC [26]: 0.39 µg/mL (≈ 0.84 µM) |
| CCCCCCCCN1CCN(C(=O)NC(C(=O)NC2CN(S(=O)(=O)[O-])C2=O)c2cccs2)C(=O)C1=O.[Na+] (stereo not drawn) [Compound J, Sodium 3-[2-(4-n-octyl-2,3-dioxo-1-piperazinocarboxamido)-2-thienylacetamido]-2-oxoazetidine-1-sulfonate] | 25 | 1.56 | 1.56 | 1.56 | 6.25 | 3.13 | 3.13 | 3.13 | 1.56 | 1.56 | > 100 | 6.25 | > 100 | 0.78 | > 100 | 25 | > 100 | 6.25 | 6.25 | 1.56 | Minimum inhibitory concentration (MIC) [21]: 1.56 µg/mL; Minimum inhibitory concentration (MIC) [22]: 1.56 µg/mL; Minimum inhibitory concentration (MIC) [23]: 1.56 µg/mL; Minimum inhibitory concentration (MIC) [24]: 3.13 µg/mL |
| COC(=O)[C@H]1[C@@H](NC(=O)/C(=N\OCC(=O)O)c2csc(N)n2)C(=O)N1S(=O)(=O)O (relative stereo) [Example No. 65C, cis-3-[2-(2-amino-4-thiazolyl)-2-carboxylmethyloxyiminoacetamido]-4-methoxycarbonyl-2-oxoazetidine-1-sulfonic acid disodium salt] | – | – | – | – | – | – | – | – | – | – | – | – | – | – | – | – | – | – | – | – | MIC [25]: 6.25 µg/mL; MIC [26]: 0.2 µg/mL |
